Test results: ChEMBL document CHEMBL1201862, “PubChem BioAssay data set” (2004)
Active and inactive are the calls of the source.

Tests used:
[1] = molecular target: Induced myeloid leukemia cell differentiation protein Mcl-1 (Homo sapiens, UniProt Q07820); type: functional
Large T antigen = Large T antigen (Simian virus 40, UniProt P03070); type: functional, Betapolyomavirus macacae;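 also: Confirmatory-stage PubChem screen for compounds that inhibit SV40 T antigen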
Aminopeptidase N = molecular target: T1, Aminopeptidase N (Plasmodium falciparum FcB1/Columbia, UniProt O96935); experiment: P. falciparum M1AAP inhibitors, biochemical, fluorogenic H-Leu-NHMec substrate, 1536-well (AID 1445); set-up: species or system Plasmodium falciparum 3D7, 3D7
T1 sequence (O96935 whole entry): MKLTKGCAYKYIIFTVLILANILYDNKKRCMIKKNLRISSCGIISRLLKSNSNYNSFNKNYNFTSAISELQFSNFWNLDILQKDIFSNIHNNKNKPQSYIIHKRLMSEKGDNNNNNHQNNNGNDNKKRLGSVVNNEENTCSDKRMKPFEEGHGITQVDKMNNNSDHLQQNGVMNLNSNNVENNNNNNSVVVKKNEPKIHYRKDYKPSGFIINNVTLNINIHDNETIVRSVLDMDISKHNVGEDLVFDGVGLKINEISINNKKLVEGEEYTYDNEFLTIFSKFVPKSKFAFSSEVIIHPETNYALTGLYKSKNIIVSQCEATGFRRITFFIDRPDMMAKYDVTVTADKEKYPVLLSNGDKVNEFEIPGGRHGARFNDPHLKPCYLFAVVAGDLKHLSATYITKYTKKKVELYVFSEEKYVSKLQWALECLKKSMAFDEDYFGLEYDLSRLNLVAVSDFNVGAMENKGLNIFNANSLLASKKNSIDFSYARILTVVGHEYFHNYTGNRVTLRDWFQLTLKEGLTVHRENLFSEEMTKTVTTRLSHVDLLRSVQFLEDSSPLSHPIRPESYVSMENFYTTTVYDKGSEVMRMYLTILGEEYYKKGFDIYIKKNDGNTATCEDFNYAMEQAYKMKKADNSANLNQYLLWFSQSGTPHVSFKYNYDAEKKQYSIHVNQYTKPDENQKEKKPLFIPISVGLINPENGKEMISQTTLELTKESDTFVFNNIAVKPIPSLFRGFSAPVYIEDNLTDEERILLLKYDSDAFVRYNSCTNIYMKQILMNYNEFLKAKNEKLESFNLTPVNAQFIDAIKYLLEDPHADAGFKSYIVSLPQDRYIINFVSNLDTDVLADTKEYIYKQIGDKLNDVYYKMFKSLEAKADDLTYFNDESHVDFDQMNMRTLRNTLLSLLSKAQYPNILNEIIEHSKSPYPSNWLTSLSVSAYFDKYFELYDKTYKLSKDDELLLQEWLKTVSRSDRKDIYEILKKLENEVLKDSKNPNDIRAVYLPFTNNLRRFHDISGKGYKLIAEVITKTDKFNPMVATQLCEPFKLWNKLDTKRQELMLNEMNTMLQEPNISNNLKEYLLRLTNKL

[2] = molecular target: T2, Trace amine-associated receptor 1 (Homo sapiens, UniProt Q96RJ0); experiment: Fluorescence-based cell-based high throughput dose response assay to identify agonists of the human trace amine associated receptor 1 (TAAR1).; type: functional
T2 sequence (Q96RJ0 whole entry): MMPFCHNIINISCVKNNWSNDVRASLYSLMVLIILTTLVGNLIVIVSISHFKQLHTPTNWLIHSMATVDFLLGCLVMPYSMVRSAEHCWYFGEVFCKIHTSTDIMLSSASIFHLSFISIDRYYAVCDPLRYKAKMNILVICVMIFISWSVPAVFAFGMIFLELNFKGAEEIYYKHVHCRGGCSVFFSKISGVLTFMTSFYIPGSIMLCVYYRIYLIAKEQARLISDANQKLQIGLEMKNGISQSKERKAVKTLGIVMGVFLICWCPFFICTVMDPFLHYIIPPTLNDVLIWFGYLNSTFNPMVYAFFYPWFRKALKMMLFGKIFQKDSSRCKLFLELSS

[3] = molecular target: T2, Trace amine-associated receptor 1; experiment: Counterscreen for agonists of the human trace amine associated receptor 1 (hTAAR1): Fluorescence-based cell-based high throughput dose response assay to identify hTAAR1 agonist that also desensitize TAAR1 receptor response.; type: functional
cells [4] = type: functional, cell-based
cells [5] = type: functional, cell-based; remark: listed apart in the source
Estrogen receptor = molecular target: T3, Estrogen receptor (Homo sapiens, UniProt P03372);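 also: potency for inhibiting coactivator peptide recruitment to the receptor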
T3 sequence (P03372 whole entry): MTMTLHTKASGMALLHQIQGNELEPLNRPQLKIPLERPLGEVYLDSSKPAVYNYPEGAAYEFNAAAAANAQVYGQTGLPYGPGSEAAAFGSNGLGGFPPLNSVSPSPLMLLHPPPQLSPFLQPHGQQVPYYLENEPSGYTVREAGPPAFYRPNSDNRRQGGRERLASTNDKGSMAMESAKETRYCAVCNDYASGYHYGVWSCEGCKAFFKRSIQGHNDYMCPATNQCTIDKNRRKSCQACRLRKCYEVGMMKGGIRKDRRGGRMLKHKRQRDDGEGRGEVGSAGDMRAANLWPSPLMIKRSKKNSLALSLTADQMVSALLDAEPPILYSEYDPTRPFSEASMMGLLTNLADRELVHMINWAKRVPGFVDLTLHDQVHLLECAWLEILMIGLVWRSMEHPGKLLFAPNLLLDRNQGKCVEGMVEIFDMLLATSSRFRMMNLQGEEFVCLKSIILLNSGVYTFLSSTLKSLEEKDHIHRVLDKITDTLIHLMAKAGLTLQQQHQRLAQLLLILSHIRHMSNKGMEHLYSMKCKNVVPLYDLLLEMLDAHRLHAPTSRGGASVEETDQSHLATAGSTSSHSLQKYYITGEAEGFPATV

[6] = NIH-3T3 fibroblast cytotoxicity, dose response, cytotoxicity control, cell-based, fluorescence, Alamar Blue, secondary assay (AID 2327); type: functional;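 also: NIH-3T3 mouse fibroblasts cultured with fluconazole at 8 µg/mL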
[7] = HEp-2 cell cytotoxicity, dose response, cytotoxicity control for RSV inhibitor project, HTS (AID 2410); type: functional; settings: human respiratory syncytial virus
[8] = C. albicans growth with fluconazole, confirmation, fluorescence, retest (AID 2467); type: functional, cell-based
cells [9] = experiment: cells
[10] = Counterscreen for activators of the function of SWI/SNF related, matrix associated, actin dependent regulator of chromatin, subfamily a, member 2 (SMARCA2, BRM): Luminescence-based cell-based high throughput dose response assay to identify non-selective compounds using the VP16 reporter assay.; type: functional
[11] = molecular target: SWI/SNF-related matrix-associated actin-dependent regulator of chromatin subfamily A member 2 (Homo sapiens, UniProt P51531); experiment: Luminescence-based cell-based high throughput dose response assay to identify activators of the function of SWI/SNF related, matrix associated, actin dependent regulator of chromatin, subfamily a, member 2 (SMARCA2, BRM).; type: functional
Fatty acid synthase [12] = molecular target: T4, Fatty acid synthase (Homo sapiens, UniProt P49327); experiment: FAS thioesterase domain inhibitors, dose response, biochemical, kinetic fluorescence intensity (AID 624326); type: functional;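 also: rate of fluorescence rise from hydrolysis of a fluorogenic O-methyl fluorescein ester substrate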
Fatty acid synthase [13] = molecular target: T4, Fatty acid synthase; experiment: FAS thioesterase domain inhibitors, dose response, biochemical, endpoint fluorescence intensity, uHTS hits (AID 624327); type: functional;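 also: fluorescence from hydrolysis of an O-methyl fluorescein acyl ester substrate by the enzyme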
Cytochrome P450 2C19 = Cytochrome P450 2C19 (Homo sapiens, UniProt P33261); experiment: qHTS Assay for Inhibitors and Substrates of Cytochrome P450 2C19. [Related pubchem assays: 410 ]; type: ADME; settings: read-out: Potency
[14] = inhibitors of SNCA 5'UTR-driven reporter translation, confirmation, H4 neuroglioma cells, luminescence (AID 1988); type: functional, cell-based
[15] = inhibitors of firefly luciferase expression or activity, dose response, H4 neuroglioma cells, luminescence (AID 1990); type: functional, cell-based
[16] = Luminescence Cell-Based Dose Response HTS to Identify Inhibitors of 5'UTR Stem-Loop Driven Prion Protein mRNA Translation in H4 Neuroglioblastoma Cells. [Related pubchem assays: 1827 (Project Summary), 1813 (Primary HTS)]; type: functional
Paired box protein Pax-8 = Paired box protein Pax-8 (Homo sapiens, UniProt Q06710); experiment: inhibitors of PAX8-driven TPO luciferase reporter, dose response, RMG-I cells, cherry-pick (AID 687027); type: functional, cell-based;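 also: luciferase reporter driven by Pax8 target thyroperoxidase promoter measured by SteadyGlo luminescence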
[17] = molecular target: T5, Acyl-homoserine lactone acylase PvdQ (Pseudomonas aeruginosa (strain LESB58), UniProt Q9I194); experiment: P. aeruginosa PvdQ acylase inhibitors, dose response, biochemical, fluorescence, plate reader and imaging, cherry-picks (AID 493231)
T5 sequence (Q9I194 whole entry): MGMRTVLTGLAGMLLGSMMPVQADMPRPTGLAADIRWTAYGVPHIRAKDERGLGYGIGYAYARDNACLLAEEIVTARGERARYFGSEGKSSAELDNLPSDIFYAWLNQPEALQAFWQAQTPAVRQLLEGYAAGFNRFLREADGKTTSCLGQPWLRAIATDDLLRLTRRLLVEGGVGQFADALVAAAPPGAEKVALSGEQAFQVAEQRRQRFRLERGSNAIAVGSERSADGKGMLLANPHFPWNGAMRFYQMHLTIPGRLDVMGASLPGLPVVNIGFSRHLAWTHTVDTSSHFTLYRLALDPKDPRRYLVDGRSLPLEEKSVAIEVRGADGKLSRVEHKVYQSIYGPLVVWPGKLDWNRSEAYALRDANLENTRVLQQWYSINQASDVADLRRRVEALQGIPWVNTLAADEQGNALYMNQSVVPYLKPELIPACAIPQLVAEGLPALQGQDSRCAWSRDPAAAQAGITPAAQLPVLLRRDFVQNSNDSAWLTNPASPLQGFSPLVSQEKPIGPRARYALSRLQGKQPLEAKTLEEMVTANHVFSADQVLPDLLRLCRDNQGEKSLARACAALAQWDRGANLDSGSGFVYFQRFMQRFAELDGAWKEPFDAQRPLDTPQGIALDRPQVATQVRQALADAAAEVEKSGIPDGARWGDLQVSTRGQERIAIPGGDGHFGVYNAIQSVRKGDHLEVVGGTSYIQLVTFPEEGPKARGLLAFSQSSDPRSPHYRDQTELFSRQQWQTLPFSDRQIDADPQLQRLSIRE

Sequence of Induced myeloid leukemia cell differentiation protein Mcl-1 (Q07820 whole entry): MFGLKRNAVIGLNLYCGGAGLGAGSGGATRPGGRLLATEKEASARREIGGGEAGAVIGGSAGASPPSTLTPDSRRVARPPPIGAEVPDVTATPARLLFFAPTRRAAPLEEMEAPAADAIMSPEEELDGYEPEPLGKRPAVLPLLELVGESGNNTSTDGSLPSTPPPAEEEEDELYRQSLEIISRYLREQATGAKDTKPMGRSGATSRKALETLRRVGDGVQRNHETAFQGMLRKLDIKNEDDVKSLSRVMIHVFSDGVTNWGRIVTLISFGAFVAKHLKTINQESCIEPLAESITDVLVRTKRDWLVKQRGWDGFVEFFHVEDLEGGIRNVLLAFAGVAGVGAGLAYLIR
Sequence of SWI/SNF-related matrix-associated actin-dependent regulator of chromatin subfamily A member 2 (P51531 whole entry, the tested form may be a part): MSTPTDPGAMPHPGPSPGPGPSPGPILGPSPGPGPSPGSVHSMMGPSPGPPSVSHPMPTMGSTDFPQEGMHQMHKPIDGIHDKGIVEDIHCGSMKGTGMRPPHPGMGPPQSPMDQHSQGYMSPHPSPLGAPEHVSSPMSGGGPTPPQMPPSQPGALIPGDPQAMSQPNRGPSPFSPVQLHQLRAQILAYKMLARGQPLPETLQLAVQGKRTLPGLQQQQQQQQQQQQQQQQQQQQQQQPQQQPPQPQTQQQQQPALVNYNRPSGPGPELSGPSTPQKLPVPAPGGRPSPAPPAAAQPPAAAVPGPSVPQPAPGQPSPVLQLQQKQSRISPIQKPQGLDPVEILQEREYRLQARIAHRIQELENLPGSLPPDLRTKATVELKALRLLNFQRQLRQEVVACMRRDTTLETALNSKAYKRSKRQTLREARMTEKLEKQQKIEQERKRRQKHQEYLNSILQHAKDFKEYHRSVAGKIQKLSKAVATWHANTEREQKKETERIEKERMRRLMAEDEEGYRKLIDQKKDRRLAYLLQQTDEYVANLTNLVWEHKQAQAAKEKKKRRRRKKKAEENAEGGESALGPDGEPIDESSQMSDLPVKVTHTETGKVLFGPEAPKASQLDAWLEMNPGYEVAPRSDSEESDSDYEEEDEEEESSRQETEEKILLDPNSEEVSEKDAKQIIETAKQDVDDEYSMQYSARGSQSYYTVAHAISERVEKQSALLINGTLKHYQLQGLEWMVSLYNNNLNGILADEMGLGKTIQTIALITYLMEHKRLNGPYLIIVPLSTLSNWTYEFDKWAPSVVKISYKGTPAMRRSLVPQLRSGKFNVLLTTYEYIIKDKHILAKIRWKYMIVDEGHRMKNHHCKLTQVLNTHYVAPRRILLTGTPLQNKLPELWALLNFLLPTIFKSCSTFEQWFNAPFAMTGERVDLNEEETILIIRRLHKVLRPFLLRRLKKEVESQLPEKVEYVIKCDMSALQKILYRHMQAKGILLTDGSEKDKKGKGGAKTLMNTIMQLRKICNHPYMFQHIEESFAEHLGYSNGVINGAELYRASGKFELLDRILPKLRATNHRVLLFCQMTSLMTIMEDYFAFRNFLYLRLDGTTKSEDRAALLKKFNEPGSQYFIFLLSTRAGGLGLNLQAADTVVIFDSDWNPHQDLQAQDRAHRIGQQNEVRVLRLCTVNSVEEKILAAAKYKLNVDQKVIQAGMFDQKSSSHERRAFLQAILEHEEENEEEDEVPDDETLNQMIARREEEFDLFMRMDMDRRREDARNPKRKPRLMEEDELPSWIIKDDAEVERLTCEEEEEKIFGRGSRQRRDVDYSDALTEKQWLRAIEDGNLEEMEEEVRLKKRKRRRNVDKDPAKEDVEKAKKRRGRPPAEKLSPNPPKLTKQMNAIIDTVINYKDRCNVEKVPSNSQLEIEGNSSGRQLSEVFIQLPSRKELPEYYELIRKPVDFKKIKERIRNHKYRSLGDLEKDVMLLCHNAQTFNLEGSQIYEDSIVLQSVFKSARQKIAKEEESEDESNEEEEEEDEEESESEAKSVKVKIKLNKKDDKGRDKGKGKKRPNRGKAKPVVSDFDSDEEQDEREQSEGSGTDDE
T4 sequence (P49327 whole entry, the tested form may be a part): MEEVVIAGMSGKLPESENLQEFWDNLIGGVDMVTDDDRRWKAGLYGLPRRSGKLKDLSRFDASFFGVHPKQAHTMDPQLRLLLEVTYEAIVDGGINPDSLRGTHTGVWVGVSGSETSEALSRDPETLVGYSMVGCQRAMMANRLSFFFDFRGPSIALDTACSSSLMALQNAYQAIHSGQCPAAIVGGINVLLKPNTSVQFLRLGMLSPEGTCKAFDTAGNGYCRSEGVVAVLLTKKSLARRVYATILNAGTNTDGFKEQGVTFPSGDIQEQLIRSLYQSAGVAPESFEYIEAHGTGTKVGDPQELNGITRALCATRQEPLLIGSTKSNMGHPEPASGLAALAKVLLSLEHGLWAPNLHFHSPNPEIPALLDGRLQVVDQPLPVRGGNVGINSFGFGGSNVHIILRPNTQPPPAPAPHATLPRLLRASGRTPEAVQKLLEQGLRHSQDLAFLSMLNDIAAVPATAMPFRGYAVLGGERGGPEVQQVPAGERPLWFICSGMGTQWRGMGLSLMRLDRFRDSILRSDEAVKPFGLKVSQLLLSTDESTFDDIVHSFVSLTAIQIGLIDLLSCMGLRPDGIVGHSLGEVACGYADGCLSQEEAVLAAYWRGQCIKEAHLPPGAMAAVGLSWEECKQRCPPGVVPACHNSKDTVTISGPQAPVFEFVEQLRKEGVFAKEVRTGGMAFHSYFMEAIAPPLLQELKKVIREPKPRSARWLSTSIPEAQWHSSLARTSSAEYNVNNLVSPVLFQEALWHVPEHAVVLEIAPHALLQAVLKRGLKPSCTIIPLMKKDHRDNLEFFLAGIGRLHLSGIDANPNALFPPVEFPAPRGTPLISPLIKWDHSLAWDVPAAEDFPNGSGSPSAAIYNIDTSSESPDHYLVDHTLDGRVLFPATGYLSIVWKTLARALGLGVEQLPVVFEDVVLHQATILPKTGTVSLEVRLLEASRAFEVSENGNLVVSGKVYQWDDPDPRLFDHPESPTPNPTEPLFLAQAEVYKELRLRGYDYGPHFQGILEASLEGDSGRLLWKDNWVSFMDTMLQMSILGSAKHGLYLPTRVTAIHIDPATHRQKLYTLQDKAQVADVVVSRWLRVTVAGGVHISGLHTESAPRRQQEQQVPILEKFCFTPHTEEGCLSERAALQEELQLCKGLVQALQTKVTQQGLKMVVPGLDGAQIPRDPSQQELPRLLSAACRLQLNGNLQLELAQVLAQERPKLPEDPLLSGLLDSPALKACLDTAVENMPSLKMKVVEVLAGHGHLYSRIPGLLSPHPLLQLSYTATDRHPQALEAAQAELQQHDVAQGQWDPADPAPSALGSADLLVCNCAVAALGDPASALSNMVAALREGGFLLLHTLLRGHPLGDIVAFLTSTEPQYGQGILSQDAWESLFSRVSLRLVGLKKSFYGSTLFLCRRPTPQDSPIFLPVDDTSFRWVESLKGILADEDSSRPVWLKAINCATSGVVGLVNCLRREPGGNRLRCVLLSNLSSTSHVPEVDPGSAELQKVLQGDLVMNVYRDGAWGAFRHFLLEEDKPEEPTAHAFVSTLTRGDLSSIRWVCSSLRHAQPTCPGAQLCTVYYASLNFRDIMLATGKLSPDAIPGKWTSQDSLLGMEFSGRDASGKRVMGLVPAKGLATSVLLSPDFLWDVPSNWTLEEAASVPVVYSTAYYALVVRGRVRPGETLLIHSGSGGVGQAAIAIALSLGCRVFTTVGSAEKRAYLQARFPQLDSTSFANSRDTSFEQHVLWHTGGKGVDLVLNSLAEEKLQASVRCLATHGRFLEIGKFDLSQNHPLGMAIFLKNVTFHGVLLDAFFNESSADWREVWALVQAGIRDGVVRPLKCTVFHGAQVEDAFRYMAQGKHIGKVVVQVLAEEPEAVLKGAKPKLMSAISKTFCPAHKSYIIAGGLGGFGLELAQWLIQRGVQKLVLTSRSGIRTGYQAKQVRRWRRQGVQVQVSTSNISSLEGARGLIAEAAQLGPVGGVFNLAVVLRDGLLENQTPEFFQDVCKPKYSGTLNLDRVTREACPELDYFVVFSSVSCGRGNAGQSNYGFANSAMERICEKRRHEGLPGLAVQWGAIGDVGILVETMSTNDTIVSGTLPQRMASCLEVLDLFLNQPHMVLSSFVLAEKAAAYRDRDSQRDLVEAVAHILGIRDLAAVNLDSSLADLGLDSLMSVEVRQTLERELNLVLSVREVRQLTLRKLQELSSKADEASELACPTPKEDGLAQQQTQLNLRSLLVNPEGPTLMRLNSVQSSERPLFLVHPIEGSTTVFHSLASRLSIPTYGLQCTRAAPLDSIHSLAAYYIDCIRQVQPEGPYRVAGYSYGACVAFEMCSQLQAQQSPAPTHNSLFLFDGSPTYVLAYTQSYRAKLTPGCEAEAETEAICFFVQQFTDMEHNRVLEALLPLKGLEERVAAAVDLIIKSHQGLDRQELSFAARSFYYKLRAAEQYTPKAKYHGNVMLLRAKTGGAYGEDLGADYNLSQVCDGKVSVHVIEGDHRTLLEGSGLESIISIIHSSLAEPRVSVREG
Sequence of Cytochrome P450 2C19 (P33261 whole entry): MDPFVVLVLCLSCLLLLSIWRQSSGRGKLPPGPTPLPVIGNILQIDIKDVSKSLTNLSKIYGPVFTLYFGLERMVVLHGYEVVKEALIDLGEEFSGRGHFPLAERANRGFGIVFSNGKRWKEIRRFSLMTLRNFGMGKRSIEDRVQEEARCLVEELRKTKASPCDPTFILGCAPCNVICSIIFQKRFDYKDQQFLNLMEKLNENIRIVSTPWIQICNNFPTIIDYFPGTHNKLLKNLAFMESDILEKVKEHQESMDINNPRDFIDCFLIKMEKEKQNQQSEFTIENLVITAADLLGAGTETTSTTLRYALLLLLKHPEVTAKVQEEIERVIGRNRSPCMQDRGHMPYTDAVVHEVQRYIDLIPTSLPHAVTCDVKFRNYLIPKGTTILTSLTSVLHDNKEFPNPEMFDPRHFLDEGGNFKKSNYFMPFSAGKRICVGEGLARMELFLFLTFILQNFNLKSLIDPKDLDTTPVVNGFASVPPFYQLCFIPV

Structure (SMILES): COc1ccc(CN2C(=O)NC(=O)/C(=C/c3ccc([N+](=O)[O-])o3)C2=O)cc1
- IC50 [1]: 3.22 µM (active)
- IC50 (Large T antigen): 71.7 µM (active)

Structure (SMILES): O=C(NCc1ccc2c(c1)OCO2)C1CCN(S(=O)(=O)c2cccs2)CC1
- IC50 (Aminopeptidase N): 26.7 µM (active)

Structure (SMILES): COC(=O)c1c(-c2ccc(C(C)(C)C)cc2)csc1NC(=O)C1C2CCC(O2)C1C(=O)O (centres undefined)
- IC50 (Aminopeptidase N): 79.5 µM (active)

Structure (SMILES): O=C(CNCCc1ccccc1)N1CCc2ccccc2C1
- EC50 [2]: 1.2 µM (active)
- IC50 [3]: 5.52 µM (active)
- IC50 (cells [4]): > 29.9 µM (inactive)
- EC50 (cells [5]): > 29.9 µM (inactive)

Structure (SMILES): CCn1c(SCC(=O)c2ccc(CNC(C)=O)o2)nnc1-c1cccs1
- IC50 (Estrogen receptor): 42.7 µM (not active)

Structure (SMILES): CC(C)c1ccc2oc(-c3ccc(NC(=O)c4nc[nH]n4)cc3)nc2c1
- EC50 [6]: > 160 µM (inactive)
- CC50 [7]: > 50 µM (active)
- EC50 [8]: 0.04 µM (active)
- IC50 (cells [9]): 42.2 µM (active)

Structure (SMILES): COCCN1CCN(c2c(C)c(C)nc3cc(-c4cccc(OC)c4)nn23)CC1
- EC50 [10]: > 91.1 µM (inactive)
- EC50 [11]: > 91.1 µM (inactive)

Structure (SMILES): CC(=O)OC1CC(C)(C)N(OC(=O)c2ccc(N)cc2)C(C)(C)C1
- IC50 (Estrogen receptor): 26.3 µM (active)

Structure (SMILES): COc1ccc2cc3cc(C(=O)N4CCCCC4C)oc3nc2c1 (centres undefined)
- CC50 [7]: 42.4 µM (active)
- IC50 (Fatty acid synthase [12]): 2.52 µM (active)
- IC50 (Fatty acid synthase [13]): 2.81 µM (active)
- IC50 (cells [9]): 35.1 µM (active)

Structure (SMILES): CNC(=S)Nc1sc2c(c1C(=O)OC)CCC2
- IC50 [1]: 1.48 µM (active)

Structure (SMILES): CC12CC3OS(=O)OC3CC3C4C(C(OCc5ccccc5)C31)C42 (centres undefined)
- AC50 (Cytochrome P450 2C19): 0.251 µM (inconclusive)

Structure (SMILES): CN(C)CCN(C(=O)/C=C/c1cccs1)c1nc2c(F)cc(F)cc2s1
- EC50 [14]: 8.47 µM (active)
- EC50 [10]: > 91.1 µM (inactive)
- EC50 [15]: 12.5 µM (active)
- EC50 [11]: > 91.1 µM (inactive)
- EC50 [16]: 10.4 µM (active)
- AC50 (Paired box protein Pax-8): 8.86 µM (active)

Structure (SMILES): O=C(O)CCc1ccc(-c2cccs2)n1CCc1ccccc1
- EC50 [2]: 0.62 µM (active)
- IC50 [3]: 5.93 µM (active)
- IC50 (cells [4]): > 29.9 µM (inactive)
- EC50 (cells [5]): > 29.9 µM (inactive)

Structure (SMILES): O=C(CN1CCC(NC(=O)c2ccccc2)CC1)NCc1ccccc1F
- IC50 (Aminopeptidase N): 39.3 µM (active)

Structure (SMILES): CCOC(=O)c1c(NC(=O)CSc2nnc(CNC(=O)c3ccco3)n2C)sc2c1CCC2
- IC50 (Estrogen receptor): > 50 µM (not active)

Structure (SMILES): COCCN(C(=O)C(C)C)c1nnc(-c2cccc(C)c2)s1
- CC50 [7]: > 50 µM (active)
- IC50 (cells [9]): 37.4 µM (active)

Structure (SMILES): Nc1cccc(C2=Nc3cccc4cccc(c34)N2)c1
- IC50 [1]: 3 µM (active)

Structure (SMILES): O=C(O)c1cccc(Nc2nc(-c3cccnc3)nc3ccccc23)c1
- IC50 (Aminopeptidase N): 79.2 µM (active)

Structure (SMILES): O=[N+]([O-])c1ccc(N2CCCCC2)nc1
- AC50 [17]: 3.98 µM (active)

Structure (SMILES): Cc1nnn(-c2nonc2N)c1C(=O)NNC(=O)c1ccc(Cl)c(Cl)c1
- EC50 [2]: 5.05 µM (active)
- IC50 [3]: > 29.9 µM (inactive)
- IC50 (cells [4]): > 29.9 µM (inactive)
- EC50 (cells [5]): > 29.9 µM (inactive)

Structure (SMILES): COC(=O)N/N=C(\C)c1ccccc1Br
- EC50 [10]: > 91.1 µM (inactive)
- EC50 [11]: > 91.1 µM (inactive)

Structure (SMILES): O=C(N[C@H](C(=O)N1CCC[C@H]1C(=O)NCCc1ccccc1Cl)c1ccccc1)c1ccccc1
- EC50 [2]: 3.78 µM (active)
- IC50 [3]: 5.99 µM (active)
- IC50 (cells [4]): > 29.9 µM (inactive)
- EC50 (cells [5]): > 29.9 µM (inactive)
